{"source": "patent US20040166561A1", "about": "“Novel intein and uses thereof” (priority 2001, published 2004)", "origin": "cited, not measured here", "key": {"[1]": {"test_system": "RecA intein from Mycobacterium tuberculosis", "details": "0.2 mM zinc (6parts/million); in vitro, splicing in trans"}, "[2]": {"molecular_target": "T1, naturally split DnaE intein from Synechocystis sp. PCC6803 (Synechocystis sp., UniProt P74750)", "T1 construct": "by the naturally split DnaE intein from Synechocystis sp; PCC6803", "details": "0.2 mM zinc (6parts/million); in vitro, splicing in trans"}}, "data": [{"compound": "[Zn+2]", "note": "[zinc]", "values": [{"measurement": "inhibition of protein splicing", "setting": "[1]", "value": 90, "unit": "%"}, {"measurement": "inhibition of protein splicing", "setting": "[2]", "value": 90, "unit": "%"}]}]}
